Consider 109 compounds from a melting point compilation (Tetko et al.).

For the compound `Cc1c(C)c(C)c(C(=O)c2ccccc2C(=O)O)c(C)c1C`, the melting point lay within 278 to 282 °C.
The compound `COc1cc(C2c3cc4c(cc3C(OC3OC5COC(c6cccs6)OC5C(O)C3O)C3COC(=O)C23)OCO4)cc(OC)c1O` (centres undefined) registered a melting point of 244 °C.
The result for `C1SCSCS1` reads 220 °C; that for `CCOC(=O)c1c(SC)nn(C(N)=O)c1N`, 155 °C; that for `COc1cc(N)c(Cl)cc1C(=O)NC1CCN(Cc2ccccc2)CC1`, 194 °C.
To `CCOC(=O)C=CN(C)C` belongs 17.5 °C; to `COC(=O)c1c(C)oc(C)c1S(=O)(=O)Cl`, 70 to 71 °C; to `CN(C)c1ccccc1C(=O)O`, 72 °C.
The result for `COC(=O)C(C)N(C(=O)c1ccccc1)c1ccc(F)c(Cl)c1` (centres undefined) reads 85 °C; that for `CC(C)CCC[C@@H](C)[C@H]1CC[C@H]2[C@@H]3CC[C@H]4C[C@H](O)CC[C@]4(C)[C@H]3CC[C@]12C`, 186 °C; that for `Cc1ccc(NN=C2C(=O)NC(=S)NC2=O)cc1`, 305 °C.
`Nc1n[nH]c(N)c1Cc1ccccc1` registered a melting point of 148 to 149 °C.
As for `CC(C)(C)OC(=O)N1CCN(c2cc(C(=O)O)ccn2)CC1`, the melting point lay in the range of 174 to 176 °C.
The compound `CC(=O)OC1CCC2C3CCC4CC(C#Cc5ccccc5)(OC(C)=O)CCC4(C)C3CCC12C` (centres undefined) showed a melting point of 100 to 111 °C.
To `NCCCCCCC(=O)O` belongs 195 °C; to `COc1ccc(C=Cc2ccc(OC)cc2)cc1`, 214 °C; to `Cc1nn(C)c2sc(CO)cc12`, 133 to 135 °C.
The result for `COc1ccc(C(c2ccc(OC)cc2)C(Cl)(Cl)Cl)cc1` reads 87 °C; that for `COc1cc(NS(=O)(=O)c2ccc(N)cc2)nc(C)n1`, 146 °C.
The result for `Cc1cc2cc3ccccc3cc2cc(C)c1=O` reads 182 °C.
Turning to `O=C(O)c1ccc(F)c(F)c1`, the melting point was 122 to 125 °C.
The result for `O=S(=O)(Cl)c1csc2ccccc12` reads 86 to 88 °C; that for `Nc1c(Cl)c(F)nc(OCC(=O)O)c1Cl`, 232 °C; that for `CCOC(=O)c1cn2nc(Cl)ccc2n1`, 156 to 157 °C.
As to `Nc1ccccc1C(=O)c1ccccc1`, the melting point was 107 °C.
The result for `CC(=O)CC(C)(C)C` reads -64 °C; that for `O=C1NCCCN1`, 265 °C; that for `Nc1c([N+](=O)[O-])ccc(Oc2ccccc2)c1Cl`, 81.5 °C.
The result for `Cc1c(N)cccc1C(F)(F)F` reads 39 °C; that for `NS(=O)(=O)c1cccc(Cl)c1`, 146 °C; that for `Nc1ccc(Oc2ccc(Cl)cc2)cc1`, 102 °C.
The result for `Cc1nc(-c2ccc3c(c2)CCO3)sc1C(=O)Cl` reads 150 to 154 °C; that for `Cc1ccc(C)[nH]1`, 7.7 °C.
Regarding `OCCN1CCN(CCO)CC1`, the melting point worked out at 135 °C.
On to `Cc1cc(C=O)ccc1O`, for which the melting point was found to be 119 °C.
The result for `CCCc1c(C)nc(NC(=O)NS(=O)(=O)c2cccs2)nc1Cl` reads 171 to 173 °C; that for `FC(F)(F)c1cccnc1S`, 180 to 182 °C; that for `NNC(=O)c1ccc2c(c1)OCO2`, 174 °C.
With `CCSC1=NN=C(SCC)NN1`, the melting point is 123 to 125 °C.
The result for `CC1CCc2cc3c(cc2N1C(=O)c1ccccc1)CCC(C)N3C(=O)c1ccccc1` (centres undefined) reads 270 °C; that for `CCOC(=O)C(C)OC(=O)c1cc(Oc2ccc(C(F)(F)F)cc2Cl)ccc1[N+](=O)[O-]` (centres undefined), 45 °C; that for `Cc1ccccc1NC(=O)C(C(F)(F)F)C(F)(F)F`, 193 to 195 °C.
The result for `COC(=O)c1ccc[nH]1` reads 73 to 75 °C.
`CCCCC(CC)CO[N+](=O)[O-]` (centres undefined) displayed a melting point of 75 °C.
The result for `O=C(O)c1cccc(-n2cncn2)c1` reads 262 to 268 °C.
To `Fc1cccc(Cl)c1CCl` belongs 7 °C; to `COc1ccccc1C=N/N=c1/sc(C(C)=O)nn1-c1ccccc1[N+](=O)[O-]`, 178 °C.
`Nc1ccc(CN2CCCC2)cc1` registered a melting point of 46 to 48 °C.
The result for `Cc1ccc(Br)cc1O` reads 79 °C; that for `ClCc1nnc(-c2ccc(Cl)cc2)o1`, 81 to 85 °C.
As for `O=C(O)Cn1c(=O)sc2cccc(Cl)c21`, the melting point was 193 °C.
The result for `O=C(Cc1ccccc1)c1cc2c(cc1Br)OCCO2` reads 142 to 144 °C; that for `CC12C=CC(=O)C=C1CCC1C2CCC2(C)C1CCC2(C)O` (centres undefined), 164 °C.
To `Cc1ccc(C(=O)c2ccccc2C(=O)O)cc1` belongs 146 °C.
To `CS(=O)(=O)c1scc(-c2ccccc2)c1C#N` belongs 164 to 166 °C; to `CCOC(=O)C(=C(C)OC(=O)c1ccccc1)c1cc(C(C(=O)OCC)=C(C)OC(=O)c2ccccc2)c([N+](=O)[O-])cc1[N+](=O)[O-]`, 167 °C.
For the compound `Nc1cccc(CN2CCCCC2)c1`, the melting point was 106 to 109 °C.
For the compound `C=CC(O)COS(=O)(=O)c1ccc(C)cc1` (centres undefined), the melting point lay within 57 to 63 °C.
The result for `C/C=C/c1ccccc1C(=O)O` reads 81 to 86 °C; that for `CCC1(OC(C)=O)CCC2(C)C(CCC3C4CCC(=O)C4(C)CCC32)C1` (centres undefined), 150 to 152 °C.
The compound `Nc1n[nH]c(N)c1Cc1ccccc1Cl` had a melting point of 120 to 121 °C.
To `O=C(CBr)c1cccc(C(F)(F)F)c1` belongs 22 °C.
To `CC(COc1ccc(C(C)(C)C)cc1)OS(=O)OCCCl` (centres undefined) belongs -31.7 °C; to `CC(=O)CC[C@H]1[C@@H](C#N)[C@H](C(C)C)CC[C@@]1(C)OC(C)=O`, 106 to 109 °C.
Turning to `O=C(Cl)c1csc2ccc(Br)cc12`, the melting point was in the range of 125 to 126 °C.
The result for `O=C(O)c1c(O)ccc(F)c1F` reads 183 °C; that for `O=C(O)CCn1c(=O)oc2ccccc21`, 126 to 128 °C.
The result for `O=C(c1ccc(Br)cc1)c1noc(-c2ccc(Br)cc2)c1S(=O)(=O)c1ccccc1` reads 155 °C.
To `COc1cc(F)ccc1C(=O)O` belongs 134 to 136 °C; to `Cc1cc(C)c2c(c1)CC1CCCCN1C2=O` (centres undefined), 102 °C; to `COC1=C(OC)C(C(O)COS(=O)(=O)c2ccc(C)cc2)OC1=O` (centres undefined), 88 to 90 °C.
In the case of `CNCC(O)c1ccccc1` (racemic), the melting point was in the range of 74 to 76 °C.
For `COC(=O)c1ccc(Br)cn1`, the melting point amounted to 101 °C.
The result for `O=C(Cl)c1ccccc1COc1ccccc1` reads 49 to 51 °C.
The result for `CC(C)(C)c1nnc(NS(=O)(=O)c2ccc(N)cc2)s1` reads 222 °C; that for `CC1(C(=O)O)CCC(C=Cc2ccccc2)C1(C)C` (centres undefined), 124 °C.
Turning to `c1ccc(-c2nc3ccccc3nc2-c2cccc3ccccc23)cc1`, the melting point came to 138 °C.
To `CCCCOC(N)=O` belongs 51 to 56 °C; to `OCc1cc2c(cc1Cl)OCO2`, 70 °C.
The result for `COc1cc(C(C)=O)ccc1F` reads 52 to 54 °C; that for `CCOC(=O)c1c(C)[nH]c2cc3[nH]c(C)c(C(=O)OCC)c3cc12`, 342 °C.
The result for `O=S(=O)(Cl)Cc1ccccc1` reads 92 °C.
Take `COc1ccc(Cl)cc1I`: the melting point came to 48 °C.
The result for `O=C(Nc1ccccc1)Nc1ccnc(Cl)c1` reads 167 °C; that for `Cc1cc(Cl)cc(Cl)c1CN`, 54 °C; that for `CC1(C)CC(CN2C(=O)C=CC2=O)C(C)(C)N1O` (centres undefined), 148 to 150 °C.
To `O=C(COC(=O)c1ccccc1)NC(CO)(CO)CO` belongs 126 °C.
The result for `Nc1cscc1S(=O)(=O)c1ccccc1` reads 125 to 126 °C.
As to `Cc1ccc([N+](=O)[O-])c(I)c1`, the melting point was 18 to 20 °C.
To `NC(Cn1ccc(=O)c(O)c1)C(=O)O` (centres undefined) belongs 228 °C; to `O=C(Cl)c1ccc(OC2CCOCC2)cc1`, 37.5 to 39 °C; to `CCCC(CCC)C(C(=O)O)C(=O)OCC` (centres undefined), 30 to 34 °C.
In the case of `O=S(=O)(Cl)c1ccccc1OC(F)(F)F`, the melting point was found to be 31 °C.
The result for `O=C(O)CCCCCC(=O)c1ccccc1` reads 85 °C; that for `CCN1CCN(C(=O)N[C@@H](C(=O)O)c2ccc(O)cc2)C(=O)C1=O`, 205 °C.
The compound `Nc1cn[nH]c1` registered a melting point of 81 °C.
To `O=C(C=Cc1ccc(F)cc1)c1ccc(F)cc1` belongs 113 to 118 °C; to `O=C(CC(=O)C(F)F)c1ccccc1`, 37 to 45 °C.
The result for `O=P(c1ccccc1)(c1ccccc1)C1C=C(c2ccccc2)C=C(c2ccccc2)O1` (centres undefined) reads 151 to 152 °C; that for `N#CC(OC1OC(COC2OC(CO)C(O)C(O)C2O)C(O)C(O)C1O)c1ccccc1` (centres undefined), 224 °C; that for `O=C(Cl)C=Cc1ccccc1`, 36 °C.
For the compound `Nc1cccc(Cl)c1C(=O)O`, the melting point was found to be 159 °C.
Turning to `O=C(O)C(Br)CBr` (centres undefined), the melting point is 66.5 °C.
With `CC(C)C(C(=O)O)C(=O)O`, the melting point lay within 90 to 93 °C.
The result for `CCCCCCCCCCCCSCCCCCCCCCCCC` reads 36 to 43 °C; that for `c1ccc2c(c1)Cc1c-2ccc2ccccc12`, 190 °C.
`Nc1ccc2cc(S(=O)(=O)O)cc(S(=O)(=O)O)c2c1` registered a melting point of 300 °C.
To `C1CCC(C(C2CCCCC2)C2CCCCC2)CC1` belongs 48 °C.
Consider `CC1(C)OC(C)(C(O)(c2cccc3ccccc23)c2cccc3ccccc23)CCC1C(=O)O` (centres undefined), for which the melting point was in the range of 210 to 211 °C.
